Patent publication US20240002351A1, “QUINAZOLIN-4-ONE AND THIENO[2,3-D]PYRIMIDIN-4-ONE INHIBITORS OF ERBB4 (HER4) FOR USE IN THE TREATMENT OF CANCER” (UNIVERSITEIT ANTWERPEN, priority 2021, published 2024)

What was measured:
ERBB4 [1] = target: T1, ERBB4 (Homo sapiens, UniProt Q15303); experiment: PathHunter ERBB4/ERBB4 dimerization assay, compounds on top of 0.1 μM NRG-1 (identification of modulators); type: cell-based; details: for EC50: on top of 0.1 μM NRG1; for Emax: on top of 0.1 μM NRG1, relative to NRG1 (set as 100%); for behaviour from the shape of the dose-response curves: on top of 0.1 μM neuregulin-1 (FIG. 1)
T1 construct: host or cells: U2OS
T1 sequence (Q15303 26-1308): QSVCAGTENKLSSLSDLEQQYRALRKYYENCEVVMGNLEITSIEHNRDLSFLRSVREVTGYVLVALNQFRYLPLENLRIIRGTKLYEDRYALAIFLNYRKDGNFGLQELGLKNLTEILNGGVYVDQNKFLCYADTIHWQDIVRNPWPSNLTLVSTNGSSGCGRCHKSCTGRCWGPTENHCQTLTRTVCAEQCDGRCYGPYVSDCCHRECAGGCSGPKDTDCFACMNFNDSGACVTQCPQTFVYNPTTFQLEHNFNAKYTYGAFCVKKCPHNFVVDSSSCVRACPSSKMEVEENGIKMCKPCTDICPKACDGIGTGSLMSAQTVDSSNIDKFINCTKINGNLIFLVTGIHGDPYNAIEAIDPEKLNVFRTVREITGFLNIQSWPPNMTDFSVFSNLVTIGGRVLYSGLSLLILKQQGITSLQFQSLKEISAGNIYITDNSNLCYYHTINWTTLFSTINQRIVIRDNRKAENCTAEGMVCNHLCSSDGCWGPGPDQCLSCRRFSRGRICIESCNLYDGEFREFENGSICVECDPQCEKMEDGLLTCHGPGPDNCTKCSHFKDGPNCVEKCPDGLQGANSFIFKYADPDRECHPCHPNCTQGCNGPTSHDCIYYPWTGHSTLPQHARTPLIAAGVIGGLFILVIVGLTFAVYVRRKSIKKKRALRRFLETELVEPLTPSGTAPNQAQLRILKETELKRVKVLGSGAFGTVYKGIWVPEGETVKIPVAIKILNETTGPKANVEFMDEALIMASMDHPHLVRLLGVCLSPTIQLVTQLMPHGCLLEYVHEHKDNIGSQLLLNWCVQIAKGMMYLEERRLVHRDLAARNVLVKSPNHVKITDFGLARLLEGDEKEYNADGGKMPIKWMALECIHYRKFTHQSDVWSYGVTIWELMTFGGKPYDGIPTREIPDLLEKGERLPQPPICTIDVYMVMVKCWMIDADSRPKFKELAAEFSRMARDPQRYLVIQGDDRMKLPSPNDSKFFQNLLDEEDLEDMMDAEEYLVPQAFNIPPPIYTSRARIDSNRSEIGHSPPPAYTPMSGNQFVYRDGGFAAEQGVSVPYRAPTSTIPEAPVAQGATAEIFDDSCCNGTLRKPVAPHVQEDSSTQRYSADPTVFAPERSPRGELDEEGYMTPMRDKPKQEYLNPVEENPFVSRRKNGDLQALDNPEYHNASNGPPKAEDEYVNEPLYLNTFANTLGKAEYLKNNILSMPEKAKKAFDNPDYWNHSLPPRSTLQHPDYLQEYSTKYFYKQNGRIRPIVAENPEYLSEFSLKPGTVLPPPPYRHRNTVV
Procedure: (§1) Following 1-12 passages, U2OS ERBB4/ERBB4 dimerization cell line (Eurofins, 93-0961C3) were seeded at 10,000 cells/well in 100 μL cell plating reagent (Eurofins, 93-0563R0A) in white walled 96-well plates (PerkinElmer, 6005680) and incubated for 24h at 37° C. in humidified atmosphere of 5% CO2 in air. Cells were treated with 10 μL of compound (prepared at 11×, Enamine), 10 μM Heregulin-β1 (NRG-1) (DiscoverX, 92-1031 or Peprotech, 100-03) or PBS. […] Cells were subsequently incubated for 6 hours at 37° C., 5% CO2. Then 110 μL PathHunter Flash Detection Reagents (93-0247) were added to each well and cells were incubated at room temperature for 1 hour (covered from light). Afterwards luminescence signal was measured using the Luminoskan Ascent (Thermofisher). Dose response curves of the compounds were performed in 2-fold (0,0625 μM-32 μM).
Cells were treated with compound (prepared at 22×, 10 min pre-incubation) together with NRG-1 (0.1 μM final concentration, Peprotech, 100-03), or NRG-1 (0.1 μM final concentration) or PBS.
The EC50 and the Emax of the compounds on top of 0.1 μM NRG1 is depicted in Table 3 relative to NRG1 (set as 100%).

[2] = Plasma stability, mouse plasma; type: in vitro ADME; details: 50 μM, 37° C., over 6 hours (FIG. 12)
Procedure: (§2) A 5 μL aliquot of compound solution (10 mM in DMSO) was added to 995 μL of Non Swiss Albino Mouse Plasma (DivBioScience, Breda, Netherlands) or Pooled Normal Human plasma in sodium citrate to obtain a final concentration of 50 μM compound in plasma. The mixture was gently shaken for 6 hours at 37° C. Aliquots of 100 μL were taken at various time points (0, 0.5, 1, 2 and 6 hrs.) and diluted with 400 μL of cold acetonitrile (Sigma-Aldrich, stored at 4° C.). The suspension was centrifuged at 14000 rpm for 5 min. Thereafter, 50 μL of the supernatant was diluted with 950 μL of acetonitrile and analyzed with LC-MS/MS (Waters Acquity H-class UPLC system with ion trap mass spectrometer, Bruker Daltonics Esquire 3000 plus, and Agilent 1100 Series LC system). Samples were analyzed in triplicate and plotted against a standard curve (compound at 3.12-100 μM in plasma and diluted in acetonitrile as described above).

[3] = Solubility in PBS (absorbance); type: physicochemical; details: aqueous buffer, kinetic from dmso stock, 37° C., 2 hours (FIG. 10), read-out: solubility: concentration at which easily soluble
Procedure: A dilution series (0.16, 0.31, 0.62, 1.25, 2.5 and 5 mM) was made starting with a compound stock solution of 10 mM in DMSO. Aliquot of 4 μL was taken out of every dilution and added to 196 μL PBS in a 96-well plate. The plate was shaken for 10 seconds, incubated at 37° C. for 2 hours and thereafter absorbance was measured. Samples were analyzed in duplicate.

[4] = Plasma stability, human plasma; type: in vitro ADME; details: 50 μM, 37° C., over 6 hours (FIG. 12)
Procedure: as §2

Chemical stability = type: physicochemical; details: 37° C. and pH 7.4 for 24 hours (FIG. 11)
Procedure: A 10 μL aliquot of compound solution (10 mM in DMSO) was added to 990 μL DMSO (100 μM) and further diluted with […] to a stock solution of 500 nM. The mixture was incubated at 37° C. Aliquots of 100 μL were taken at various time points (0, 0.5, 1, 2, 3, 6 and 24 hrs) and analyzed with LC-MS/MS (Waters Acquity H-class UPLC system with ion trap mass spectrometer, Bruker Daltonics Esquire 3000 plus, and Agilent 1100 Series LC system). Samples were analyzed in triplicate and plotted against a standard curve; compound at 31-500 nM in buffer solution of pH 7.4 (10 mM Potassium Phosphate, BD Gentest).

[5] = Metabolic stability, mouse liver microsomes; type: in vitro ADME; details: for t1/2 mouse: mouse liver microsomes; for half-life at 10 µM: mouse, liver microsomes, pH 7.4, mouse liver microsomes, read-out: t1/2 mouse
Procedure: A mixture of 713 μL milliQ water (Millipore, MA, USA), 200 μL 0.5 M phosphate buffer (pH 7.4, BD Diagnostic Systems, MD, USA), 50 μL NADPH regenerating system solution A (BD Biosciences, CA, USA), 10 μL NADPH regenerating system solution B (BD Biosciences, CA, USA) and 2 μL compound (5 mM in DMSO) was prepared and heated for 5 min at 37° C. Twenty-five μL of liver microsomes (0.5 mg protein/mL, Corning B.V. Life Sciences, Amsterdam, Netherlands) was added to the mixture and 20 μL samples were withdrawn at 0, 0.25, 0.5 and 1, 2, 4, 6 and 24 hours. Eighty μL (4×20 μL) of cold acetonitrile (Sigma-Aldrich, MO, USA) was added to the samples on ice for 10 min. Afterwards, the mixtures were centrifuged at 13,000 rpm for 5 min at 4° C. Seventy-five μL of an acetonitrile/water (10/90) mixture was added to 25 μL supernatant and the obtained samples were analyzed by LC-MS/MS (Waters Acquity H-class UPLC system with ion trap mass spectrometer, Bruker Daltonics Esquire 3000 plus, and Agilent 1100 Series LC system) in triplicate.

ERBB4 [6] = target: T1, ERBB4; experiment: PathHunter ERBB4/ERBB4 dimerization assay, dose-response curves; type: cell-based; details: U2OS ERBB4/ERBB4 dimerization cell line, 6 hours, compound alone; for Emax: NRG-1 = 100
Procedure: as §1
From these curves, the EC50 and the Emax of the compounds was calculated.

SMILES | EC50 (ERBB4 [1]) [µM] | Emax (ERBB4 [1]) [%] | behaviour from the shape of the dose-response curves (ERBB4 [1]) | plasma stability, mouse plasma [2] | solubility at 2 h [3] [µM] | plasma stability, human plasma [4] | chemical stability (Chemical stability) | t1/2 mouse [5] [min] | half-life at 10 µM [5] [min] | EC50 (ERBB4 [6]) [µM] | Emax (ERBB4 [6]) [%]
O=C(NC1CC1)C(Sc1nc2ccccc2c(=O)n1C1CCCC1)c1ccccc1 (centres unmarked) [Compound 1] | ~1.6 | 256 ± 126 | ago-allosteric modulators | stable | < 25 | stable | chemically stable | 15 | 14 to 15 | 8.92 | 33.1 ± 4.21
Cc1sc2nc(SC(C)C(=O)Nc3sccc3C(N)=O)n(CC(C)C)c(=O)c2c1C (centres unmarked) [Compound 6] | ~13.9 | 112 ± 14 | weak or silent allosteric modulators | stable | < 25 | stable | chemically stable | 8 | 8 to 12 | 6.47 | 10.3 ± 3.01
CC(Sc1nc2ccccc2c(=O)n1C1CCCC1)c1nc2ccccc2n1C(F)F (centres unmarked) [Compound 7] | – | 139 ± 19 | weak or silent allosteric modulators | stable | < 25 | stable | chemically stable | 14 | 14 to 15 | 10.4 | 9.76 ± 2.46
